Experimental data taken from US7666901B2, “Analogs of 17-hydroxywortmannin as PI3K inhibitors” (Wyeth, priority 2004, dated 2010).

Key:
PI3K = system: T1, PI3K; assay: Fluorescence polarization assay for PI3K; type: biochemical
T1 construct: PI3K FP IC50
Method in brief: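 PI3K was preincubated with compound at 1% DMSO final, then reacted with PIP2/ATP substrate for 30-60 min. The reaction was stopped with a detector mix giving 10 nM red probe and 70 nM GST-GRP. Fluorescence polarization (mP, Tamra filters) was read 30-90 min later and IC50 determined.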

[1] = system: DU145 (human prostate carcinoma/lymphocytic leukemia); assay: Cell proliferation (MTS) assay, DU145; type: cell-based; details: three days treatment
Method in brief: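 Cells plated at about 3000 per well in RPMI-1640/10% FBS were dosed with compound one day later. Viability was read by MTS conversion (absorbance 490 nm, 1–2 h) three days after treatment began. Effect is expressed as percent of vehicle-treated growth on the same plate.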

[2] = system: MDA231 breast tumor cells; assay: Tumor cell growth assay, combination with MEK inhibitor, MDA231; type: cell-based, human
Procedure: (§1) Human tumor cell are all obtained from ATCC, and are cultured using standard cell culture methods. Cells are plated in 96-well culture plates at 1000 to 3000 cells per well. One day following plating, cells are treated with various doses of PI3K inhibitor Compound 4 or Compound 5 alone or with a low constant dose of MEK inhibitor 2-(2-chloro-4-iodoanilino)-N-(cycloprorylmethoxy-3,4-difluobenzamide) (1 μg/ml) or UO126 (5 μg/ml). UO126 is also known as 1,4-diamino-2,3-dicyano-1,4-bis[2-aminophenylthio]butadiene. In some experiments, cells are treated alone with various doses of the MEK inhibitor (2-(2-chloro-4-iodoanilino)-N-(cycloprorylmethoxy-3,4-difluobenzamide)), or HER2/neu inhibitor HKI-272, or mTOR inhibitor CCI-779, or with a low constant dose of Compound 4 (0.1 μg/ml). […] Three days after drug treatment, viable cell densities are determined by metabolic conversion (by viable cells) of the dye MTS, an established cell proliferation assay. […] The MTS assay results are read in a 96-well plate reader by measuring absorbance at 490 nm. The effect of each treatment is calculated as percent of control growth relative to the vehicle DMSO-treated cells grown in the same culture plate. […]

HCT116 cells = assay: Apoptosis assay (Apo-ONE Caspase-3/7), HCT116; type: cell-based, human
Procedure: Cells are plated in a 96-well plate at a density of 3000 cells per well. 24 hr later cells are treated with single agent or combination as indicated. Apoptosis is measured at 24 hr and 48 hr post drug treatment by Apo-ONE Caspase-3/7 assay kit (cat # G7791, Promega Corp.) following the protocol provided by the vendor. Assay mix is added to cells and incubated at room temperature for 3 hours with gentle mixing using a plate shaker. The fluorescence of each well is read using the Victor Wallac Plate Reader. Each experimental plate contains blank wells (without cells) as background fluorescence that is subtracted from all wells to obtain experimental values. Data are expressed as relative fluorescent units (RFLU) or as Apo-ONE units.

MDA-MB-231 breast cells = assay: Tumor cell growth assay, combination with CCI-779, MDA-MB-231; type: cell-based, human; details: compound 4 at 0.1 μg/ml
Procedure: as §1

colon tumor cell lines = assay: Tumor cell growth assay, combination with CCI-779, colon lines; type: cell-based, human; details: compound 4 at 0.1 μg/ml
Procedure: as §1

[3] = system: PTEN-negative breast tumor cell lines; assay: Tumor cell growth assay, combination with CCI-779, PTEN-negative breast lines; type: cell-based, human; details: compound 4 at 0.1 μg/ml
Procedure: as §1

SMILES: COC[C@H]1OC(=O)/C(=C/N(CCO)C(C)(C)C)C2=C(O)C(=O)C3=C([C@H](OC(C)=O)C[C@@]4(C)C3CC[C@@H]4O)[C@]21C (stereo partly drawn) [Compound 4, (1E,4S,4aR,5R,6aS,7S)-1-{[tert-butyl(2-hydroxyethyl)amino]methylene}-7,11-dihydroxy-4-(methoxymethyl)-4a,6a-dimethyl-2,10-dioxo-1,2,4,4a,5,6,6a,7,8,9,9a,10-dodecahydroindeno[4,5-h]isochromen-5-yl acetate]
- PI3K FP IC50 (PI3K; Table 1): 0.596 µg/mL
- IC50 (PI3K; Table 2): 1000 nM
- DU145 IC50 ([1]; Table 1): 1.5 µg/mL
- DU145 IC50 ([1]; Table 2): 1 µg/mL
- growth inhibition in combination with MEK inhibitor 2-(2-chloro-4-iodoanilino)-N-(cycloprorylmethoxy-3,4-difluobenzamide) [2]: synergistic growth inhibition
- induction of apoptosis in combination with MEK inhibitor 2-(2-chloro-4-iodoanilino)-N-(cycloprorylmethoxy-3,4-difluobenzamide) (HCT116 cells): synergistic induction of apoptosis
- growth inhibition in combination with mTOR inhibitor CCI-779 (MDA-MB-231 breast cells): synergistically inhibited growth
- growth inhibition in combination with mTOR inhibitor CCI-779 (colon tumor cell lines): synergistically inhibited growth
- growth inhibition in combination with mTOR inhibitor CCI-779 [3]: additive growth inhibition
- growth inhibition in combination with mTOR inhibitor CCI-779 ([3]; listed as compound 4): synergistically inhibited growth
